Results reported in patent US20260293937A1, “SHRIMP FEED AND METHODS OF USE THEREOF” (Organicin Scientific, Inc., priority 2023, published 2026).
“And” between values parts separate entries of the source, which are not always exact repeats. Identical values can stand only once. No end group written: not given here.

How the values were obtained:
Vibrio alginolyticus = test: Minimum inhibitory concentration by serial two-fold dilution spotted on Vibrio lawns; assay type: cell-based; details: individual V. alginolyticus lines; 37° C., 16 to 20 hours
Experimental: (§1) This Example describes the materials and methods, and results of a serial dilution experiment to determine the Minimum Inhibitory Concentration (MIC) of Nisin in reducing a concentration of pathogenic Vibrio.
(§2) On the day before the experiment, Vibrio stock were prepared by sterilizing an inoculation loop, cooling the product, and extracting cells. Such extract was incubated at 37° C. for 16 to 20 hours. The density of cells was normalized to a cell density of approximately 10^7 to 10^8 CFU/mL and 100 uL lawns were prepared at a cell density of about 10^6 to 10^7 CFU using sterile glass beads. Four lawns were made so that each Nisin dilution could be tested on two identical plates.
(§3) 5 μL of two-fold dilutions (See Table 1, below) of Nisin (Immucell; 99% pure), or shrimp feed (without Nisin), citric acid, or DH20 negative controls, respectively, were spotted on the plates, which were incubated at 37° C. for 16 to 20 hours. The minimum inhibitory concentration was determined. In particular, plates were characterized based upon the presence (0) or absence (1) of Vibrio growth.

Vibrio cholerae = test: as above; assay type: cell-based; details: individual V. cholerae lines; 37° C., 16 to 20 hours
Experimental: as §1, §2, §3

[1] = test system: Vibrio parahaemolyticus (strain 13-028A/3); test: AHPND immersion challenge, feed-and-survival assay in shrimp; assay type: in vivo, Penaeus (Litopenaeus) vannamei; details: for Group Survival: positive control 35%; for % Survival: per tank; for Survivors: per tank of 20 shrimp
Experimental: This Example describes the materials, methods, and results of a feed-and-survival assay in shrimp treated with a composition of the disclosure, including the bacteriocin Nisin and shrimp feed.
Specific Pathogen Free (SPF) P. vannamei at an average weight of 1 g to 2 g, were obtained from a commercial shrimp producer and reared. A total of 300 shrimp were transferred into 15 90 L glass aquaria, each aquarium stocked with 20 shrimp.
Shrimp feed diets was prepared at X, 10X, and 100X (0.84 mg/g, 8.4 mg/g, and 84 mg/g Nisin, respectively) estimated concentrations of the bacteriocin Nisin. The bacteriocin additive was combined with a 40% protein commercial shrimp premix (Rangen Inc., Buhl, Idaho), carboxymethyl cellulose at a 3% inclusion rate, and up to 40% w/v water. Exemplary components of a typical 35% protein shrimp diet were wheat flour (35%), soybean meal (20%) and fishmeal (25%). The mixture was then cold-extruded through a meat grinder to produce a 3 mm diameter size pellet strand. The resulting feed strands were dried overnight at 40° C. and broken into appropriately-sized pellets. A total of 100 g of each diet was use for this study. In all three experimental groups a minimum of 9.324 g of Nisin was used to produce the respective feed conditions.
The negative and positive control tanks were fed Rangen's commercially pelleted shrimp diet without additive.
The commercially prepared shrimp diet from juvenile Penaeus (Litopenaeus) vannameia was prepared with a bacteriocin additive at three concentrations (0.84 mg/g, 8.4 mg/g, and 84 mg/g Nisin). Experimental shrimp were orally exposed for […] Vibrio parahaemolyticus, an agent which causes Acute Hepatopancreatic Necrosis Disease (AHPND) to determine if the feed additives (provided during and after exposure) would affect survival when compared to the group that was fed an untreated diet.
All tanks were covered to reduce the risk of mortality due to shrimp jumping out. Each group of tanks was outfitted with its own equipment (e.g., nets and buckets). Each tank contained sufficient aeration and was outfitted with a pre-conditioned biological filter. Water quality tests to characterize temperature, nitrite and total ammonia were performed on tanks weekly.
Nine tanks (three per Nisin concentration) were used to house shrimp that were fed the bacteriocin-containing diet, while three tanks were used to house shrimp fed the control diet without additive. In both cases, the shrimp were fed their respective diet, followed by the AHPND challenge. The challenge was provided on 7 days at 5% of body weight per tank. Three additional tanks were used as a negative control for environmental conditions and were used to house shrimp fed the control diet and not challenged with AHPND. Additionally, the negative control tanks were be fed before the AHPND challenged tanks to reduce the risk of cross contamination.
Each tank scheduled for the AHPND challenge was subjected to an immersion challenge. Tryptic Soy Broth +2% (TSB+) sodium chloride was inoculated with a consistently virulent strain of Vibrio parahaemolyticus (strain 13-028A/3), incubated for 18 hours, and added directly into each challenge tank. The bacterial suspension was added into each tank to achieve the bacterial density measured by optical density absorbance (OD600 nm) at approximately […].
Two animals were preserved in Davidson's AFA fixative prior to the start of the study to document the SPF health status of the population by histology.
All tanks were checked twice a day for dead or moribund animals. During the study, any mortalities were removed from the tank and frozen at −20° C. Up to two moribund animals from each diet group, including the positive control tanks, were preserved in Davidson's AFA fixative and processed for routine histology to confirm an AHPND infection (up to 12 P. vannamei processed for histology during the challenge period). […]

Nisin: Nisin (Immucell; 99% pure) in Example 1; bacteriocin Nisin in shrimp feed at 0.84, 8.4 and 84 mg/g in Example 2 (ITSISLCTPGCKTGALMGCNMKTATCHCSIHVSK; cysteine pairing not given here; also: lantibiotic, modifications not placed; UniProt P13068 24-57, looked up)
MIC (Vibrio alginolyticus): 8.3 ug/mL and 66.1 ug/mL and 2,115.0 ug/mL and 0.01 wt/v % and 0.07 wt/v % and 2.12 wt/v %
MIC (Vibrio cholerae): 1,057.5 ug/mL and 8.3 ug/mL and 2,115.0 ug/mL and 132.2 ug/mL and 1.06 wt/v % and 0.01 wt/v % and 2.12 wt/v % and 0.13 wt/v %
cumulative survival vs positive control group ([1]; 0.84 mg/g Nisin in feed): statistically significant difference in cumulative survival
deaths pre-challenge ([1]; 0.84 mg/g Nisin in feed): 4
increase in relative survival of AHPND-challenged shrimp ([1]; 0.84 mg/g Nisin in feed vs positive controls, statistically significant): 265%
survival of AHPND-challenged shrimp ([1]; 0.84 mg/g Nisin in feed, pre-challenge deaths excluded, positive controls 35%): 100%
survival rate vs positive controls ([1]; 8.4 mg/g Nisin in feed): significantly higher than the positive controls
deaths ([1]; 84 mg/g Nisin in feed): not a single death
survival vs positive controls ([1]; 84 mg/g Nisin in feed): statistically significant as compared to the positive controls
Mortalities by Day ([1]; 1X (0.84 mg/g Nisin in feed), day 0, per tank): 0
Mortalities by Day ([1]; 1X (0.84 mg/g Nisin in feed), day 2, per tank): 0
Mortalities by Day ([1]; 1X (0.84 mg/g Nisin in feed), day 3, per tank): 0
Mortalities by Day ([1]; 1X (0.84 mg/g Nisin in feed), day 4, per tank): 0
Mortalities by Day ([1]; 1X (0.84 mg/g Nisin in feed), day 5, per tank): 0
Mortalities by Day ([1]; 1X (0.84 mg/g Nisin in feed), day 6, per tank): 0
Mortalities by Day ([1]; 1X (0.84 mg/g Nisin in feed), day 7, per tank): 0
Mortalities by Day ([1]; 1X (0.84 mg/g Nisin in feed), day 8, per tank): 0
Mortalities by Day ([1]; 1X (0.84 mg/g Nisin in feed), day 9, per tank): 0
Mortalities by Day ([1]; 1X (0.84 mg/g Nisin in feed), day 10, per tank): 0
Mortalities by Day ([1]; 1X (0.84 mg/g Nisin in feed), day 11, per tank): 0
Mortalities by Day ([1]; 1X (0.84 mg/g Nisin in feed), day 12, per tank): 0
Mortalities by Day ([1]; 1X (0.84 mg/g Nisin in feed), day 13, per tank): 0
Mortalities by Day ([1]; 1X (0.84 mg/g Nisin in feed), day 14, per tank): 0
Mortalities by Day ([1]; 1X (0.84 mg/g Nisin in feed), day 15, per tank): 0
Mortalities by Day ([1]; 1X (0.84 mg/g Nisin in feed), day 16, per tank): 0
Group Survival ([1]; 1X (0.84 mg/g Nisin in feed), overall): 93%
% Survival ([1]; 1X (0.84 mg/g Nisin in feed)): 95% and 90%
Survivors ([1]; 1X (0.84 mg/g Nisin in feed)): 19 and 18
Mortalities by Day ([1]; 10X (8.4 mg/g Nisin in feed), day 0, per tank): 0
Mortalities by Day ([1]; 10X (8.4 mg/g Nisin in feed), day 1, per tank): 0
Mortalities by Day ([1]; 10X (8.4 mg/g Nisin in feed), day 2, per tank): 0
Mortalities by Day ([1]; 10X (8.4 mg/g Nisin in feed), day 3, per tank): 0
Mortalities by Day ([1]; 10X (8.4 mg/g Nisin in feed), day 4, per tank): 0
Mortalities by Day ([1]; 10X (8.4 mg/g Nisin in feed), day 5, per tank): 0
Mortalities by Day ([1]; 10X (8.4 mg/g Nisin in feed), day 6, per tank): 0
Mortalities by Day ([1]; 10X (8.4 mg/g Nisin in feed), day 7, per tank): 0
Mortalities by Day ([1]; 10X (8.4 mg/g Nisin in feed), day 13, per tank): 0
Mortalities by Day ([1]; 10X (8.4 mg/g Nisin in feed), day 14, per tank): 0
Mortalities by Day ([1]; 10X (8.4 mg/g Nisin in feed), day 15, per tank): 0
Mortalities by Day ([1]; 10X (8.4 mg/g Nisin in feed), day 16, per tank): 0
% Survival ([1]; 10X (8.4 mg/g Nisin in feed)): 85% and 75% and 45%
Survivors ([1]; 10X (8.4 mg/g Nisin in feed)): 17 and 15 and 9
Group Survival ([1]; 10X (8.4 mg/g Nisin in feed)): 68%
Mortalities by Day ([1]; 100X (84 mg/g Nisin in feed), day 0, per tank): 0
Mortalities by Day ([1]; 100X (84 mg/g Nisin in feed), day 1, per tank): 0
Mortalities by Day ([1]; 100X (84 mg/g Nisin in feed), day 2, per tank): 0
Mortalities by Day ([1]; 100X (84 mg/g Nisin in feed), day 3, per tank): 0
Mortalities by Day ([1]; 100X (84 mg/g Nisin in feed), day 4, per tank): 0
Mortalities by Day ([1]; 100X (84 mg/g Nisin in feed), day 5, per tank): 0
Mortalities by Day ([1]; 100X (84 mg/g Nisin in feed), day 6, per tank): 0
Mortalities by Day ([1]; 100X (84 mg/g Nisin in feed), day 7, per tank): 0
Mortalities by Day ([1]; 100X (84 mg/g Nisin in feed), day 8, per tank): 0
Mortalities by Day ([1]; 100X (84 mg/g Nisin in feed), day 9, per tank): 0
Mortalities by Day ([1]; 100X (84 mg/g Nisin in feed), day 10, per tank): 0
Mortalities by Day ([1]; 100X (84 mg/g Nisin in feed), day 11, per tank): 0
Mortalities by Day ([1]; 100X (84 mg/g Nisin in feed), day 12, per tank): 0
Mortalities by Day ([1]; 100X (84 mg/g Nisin in feed), day 13, per tank): 0
Mortalities by Day ([1]; 100X (84 mg/g Nisin in feed), day 14, per tank): 0
Mortalities by Day ([1]; 100X (84 mg/g Nisin in feed), day 15, per tank): 0
Mortalities by Day ([1]; 100X (84 mg/g Nisin in feed), day 16, per tank): 0
% Survival ([1]; 100X (84 mg/g Nisin in feed)): 100%
Survivors ([1]; 100X (84 mg/g Nisin in feed)): 20
Group Survival ([1]; 100X (84 mg/g Nisin in feed)): 100%
shrimp survival ([1]; Nisin and shrimp feed, dose as low as 0.84 mg/g): significant increase in shrimp survival
